Data published in patent US12668567B2 (Zywie, LLC, priority 2023, dated 2026).
Entries after “also recorded” stand apart in the source; their conditions may differ.

Legend:
[1] = tested on: human induced pluripotent stem cell (iPSC)-derived neurons; assay: Lysosomal size (Lysotracker, confocal microscopy) in iPSC-derived neurons; assay type: cell-based; conditions: 14 days, IMARIS software, FIG. 3
Procedure: To obtain the data, human induced pluripotent stem cell (iPSC)-derived neurons were grown in culture for 14 days. Lysosomes were stained with “Lysotracker” and cells were fixed and imaged using confocal micrsosopy. Lysosomal size was measured using IMARIS software (Bitplane).
In FIG. 3 human neuronal inducible Pluripotent Stem Cells (iPSCs) were obtained from the New York Stem Cell Foundation. Cultured cells were differentiated and maintained in proprietary media from Stem Cell Technology. […] Cells were treated for 14 days. Lysosomes were stained with “Lysotracker Green” (Invitrogen) following manufacturer's directions. Cells were fixed and 3D image stacks were acquired using a Leica SP8 laser scanning confocal microscope. Lysosomal size was quantitated using IMARIS 7.7 software (Bitplane).

[2] = tested on: TFEB; assay: TFEB transfer to the nucleus (immunostaining, nuclear puncta); assay type: cell-based; conditions: human iPSC-derived neurons, 14 days; FIG. 6
Procedure: To obtain the data, human iPSC-derived neurons were treated with difluor-substituted-ambroxol for 14 days. Cells were fixed and endogenous TFEB was immunostained and nuclei were identified by DAPI staining. Cells were imaged on a Leica SP8 Confocal Microscope. TFEB signal appeared as puncta throughout the cytoplasm and nucleus (FIG. 6B). TFEB puncta within the nucleus were quantitated using IMARIS software (Bitplane).
Human iPSC-derived neurons were treated with difluoro-substituted-ambroxol for 14 days. Cells were fixed and endogenous TFEB was immunostained. Nuclei were identified by DAPI staining. Cells were imaged as 3D stacks on a Leica SP8 Confocal Microscope. TFEB signal appeared as puncta throughout the cytoplasm and nucleus (FIG. 6A). TFEB puncta within the nucleus were quantitated using IMARIS 7.7 software (Bitplane) (FIG. 6B).

[3] = tested on: iPSC-derived human neurons bearing the Swedish amyloid precursor protein mutation; assay: Secretion of Abeta40 and Abeta42 into media (ELISA); assay type: cell-based; conditions: 5 days; for secretion of Abeta40 into the media / secretion of Abeta42 into the media: 10 micromolar; for secretion of Abeta40 into the media: FIG. 7A; for secretion of Abeta42 into the media: FIG. 7B
From the text: Media was collected and analysed by ELISA assay.
Media was taken and analyzed by ELISA (Invitrogen) for Abeta 40 (FIG. 7A) and 42 (FIG. 7B) following manufacturer's instructions.

[4] = Metabolic stability in human liver microsomes; assay type: in vitro ADME; conditions: for Increase of elimination half-life vs. ambroxol: human liver microsomes; for In vitro elimination half-life t1/2 / Intrinsic clearance CLint-microsomes: human liver microsomes 1 mg/mL protein, 1 μM compound, 37° C., NADPH-regenerating system
Procedure: The compounds were added to preparations of human liver microsomes (200 μL per incubation at a 1 mg/mL protein concentration) such that the final compound concentration was 1 μM. The samples were incubated at 37° C. in the presence of a reduced nicotinamide adenine dinucleotide phosphate (NADPH)-regenerating system (NADP, 1 mM, pH 7.4; glucose-6-phosphate, 5 mM, pH 7.4; glucose-6-phosphate dehydrogenase, 1 unit/mL). A positive control (midazolam, 1 μM, 0.1 mg/mL protein) was incubated concurrently to ensure the microsome preparation was performing as expected. Samples were obtained at t=0, 30, 60, and 120 min and quenched by addition of acetonitrile.
Quenched samples were analyzed by liquid chromatography coupled to tandem mass spectrometry detection (LC/MS-MS). The concentration of the test compounds at each time point were converted to percent remaining relative to the concentration of the compound at time t=0 (which serves as the 100% value). All data points were included in data processing. The rate constant of elimination (kel, min^−1) of each test compound was determined from the time course of disappearance of the parent compound based on fitting the experimental data to a single exponential decay formula (At=Aoe^−kelt, where At is the % remaining at time t, Ao is 100%, […] is the elimination rate constant, and t is time). The in vitro half-life (t1/2) was determined from kel based on the formula: t1/2=ln(2)/kel. The rate constant of elimination was also used to calculate the in vitro intrinsic clearance CLint-microsomes (μL/min/mg protein).

[5] = mouse, in vivo, po, 10 mg/kg
Procedure: Both compounds were dosed at 10 mg/kg (free base equivalent) as 1 mg/mL clear solutions in 5:95 v/v dimethylsulfoxide (DMSO)/saline. Volumes administered were calculated for each animal based on their most recent weight. Animals were fasted overnight prior to drug administration and food and water were returned 4 h after dose administration. Mice (N=3 per group) were sacrificed at 0.15, 0.25, 1, 2, 4, 8, and 24 h post-dose. Blood (K2EDTA collection tubes) and brain were collected from each animal at each time point. Plasma (isolated from blood samples by centrifugation) and brain homogenates (obtained by homogenization with 50% methanol in water in a 1:2 w/v ratio) were used to prepare samples for quantitative analysis (internal standard: verapamil) by HPLC/MS-MS (C18 column, gradient elution; standard curves from 1 to 3,000 ng/mL; electrospray, positive ionization mode, multiple reaction monitoring—MRM—mode).

[6] = tested on: N2A neuroblastoma cells; assay: Lysosomal, autophagosomal and TFEB gene expression by qPCR in N2A cells; assay type: cell-based; conditions: 10 micromolar, FIG. 4
Procedure: To obtain the data, N2A neuroblastoma cells were treated for 3 days with solvent alone (DMSO), ZW-010 (difluoro) or ZW-011 (dimethoxy) at 10 micromolar. Cells were extracted and mRNAs were quantitated by qPCR.
In FIG. 4, N2a Neuroblastoma cells were obtained from the American Tissue Type Collection (ATCC). Cells were plated in a 6-well plate at a density of 100,000 cells/well. Cells were given 24 hours in MEM supplemented with 10% Fetal Bovine Serum (FBS) and then differentiated by serum starvation in MEM for 24 hours. […] Cells were left in treated media for 24 hours then RNA was TRIzol-chloroform extracted. cDNA was created using an iScript cDNA synthesis kit (Bio-Rad), and RT-PCR was run using a SsoAdvanced Universal SYBR Green Supermix kit (Bio-Rad).

[7] = tested on: iPSC-derived human neurons; assay: Lysosomal and autophagosomal gene expression by qPCR in iPSC-derived human neurons; assay type: cell-based; conditions: 3 days, 10 micromolar, FIG. 5
Procedure: To obtain the data, iPSC-derived human Neurons were treated for 3 days with solvent alone (DMSO), ZW-010 (difluoro) or ZW-011 (dimethoxy) at 10 micromolar. Cells were extracted and mRNAs were quantitated by qPCR.
In FIG. 5, Human iPSC-derived neurons (as in FIG. 3) were plated on two 6-well plates at a density of 150,000 cells/well. […] Cells were treated for 3 days and cells were TRIzol-chloroform extracted. cDNA was created using an iScript cDNA synthesis kit (Bio-Rad), and RT-PCR was run using a SsoAdvanced Universal SYBR Green Supermix kit (Bio-Rad).

[8] = tested on: mouse B6D2F1 model; assay: Lifespan study with chow supplement; assay type: in vivo; conditions: 50 mg/kg daily as chow supplement
Procedure: Weaned male BDF1 mice raised from pups, housed 1-4 animals per cage and fed Teklad 7013 NIH-31 rodent chow and water ad libitum, at 2 months of age, are divided into two roughly equal groups of 22-25 animals. One group continues to be fed the Teklad chow as before (control); the other group is switched to Teklad chow formulated with any one of compounds 1-6 at 300 mg per kg of chow. This formulation was designed, based on the average ad libitum chow consumption of an adult male BDF1 mouse, to deliver 50 mg/kg/day (based on body mass) to each mouse in the treated group. Mice are maintained on this diet until they die naturally or until they reach 16 months of age, at which time the experiment ends. During the course of the experiment, all mice are periodically removed from their cages and handled in the course of subjecting them to various sensorimotor, cognitive, and/or behavioral tests.

[9] = tested on: mice; assay: Novel place recognition (cognitive acuity test at 7 months); assay type: in vivo, mouse; conditions: 150 mg/kg/day and 50 mg/kg/day vs. control, tested at 7 months; FIG. 9
Procedure: A Discrimination Index (DI)=(tnovel-tfamiliar)/(tnovel+tfamiliar) was used to assess the time spent exploring near the object in a novel place (“tnovel”) vs. the total exploration time overall. Discrimination Index scores greater than zero are considered to indicate good place recognition memory.
Three groups of mice, with at least 13 mice in each group, are given a cognitive acuity test at 7 months. The three groups of mice are: “High Dose” Group (150 mg/kg/day of a compound of the present invention), “Low Dose” (50 mg/kg/day of a compound of the present invention) Group, and a Control Group (not administered a compound of the present invention).

Nc1c(F)cc(F)cc1CN[C@H]1CC[C@H](O)CC1 [ZW-010, trans-{4-[(2-amino-3.5-difluorophenyl)methyl]amino}cyclohexanol]
lysosomal size [1]: increase lysosomal size
TFEB transfer to the nucleus [2]: induces TFEB transfer to the nucleus
secretion of Abeta40 into the media [3]: decreased secretion
secretion of Abeta42 into the media [3]: decreased secretion
Increase of elimination half-life vs. ambroxol [4]: increased by more than two-fold
In vitro elimination half-life t1/2 [4]: >2 h
Intrinsic clearance CLint-microsomes [4]: <5.775 μL/min/mg protein
AUClast Brain/Plasma [5]: 3.6
AUClast, brain [5]: 10774 ng·h/g
AUClast, plasma [5]: 2991 ng·h/mL
molar exposure AUClast [5]: 42.0 µM·h
lysosomal, autophagosomal and TFEB gene expression (LAMP1, Cathepsin B, GBA1, LC3, TFEB mRNA) [6]: increased transcription of lysosome-associated LAMP1, Cathepsin B, GBA1, and autophagy-associated LC3 and TFEB to a greater extent than ambroxol; also recorded: drive lysosomal and autophagosomal and TFEB gene expression
lysosomal and autophagosomal gene expression (LAMP1, Cathepsin D, Cathepsin B, GBA1, LC3, TFEB mRNA) [7]: increased transcription of lysosome-associated LAMP1, Cathepsin D, Cathepsin B, GBA1, and autophagy-associated LC3 and TFEB to a greater extent than ambroxol; also recorded: drive lysosomal and autophagosomal gene expression to a greater degree in iPSC-derived human neurons compared with ambroxol

COc1cc(CN[C@H]2CC[C@H](O)CC2)c(N)c(OC)c1 [ZW-011, trans-4-{[(2-amino-3.5-dimethoxyphenyl)methyl]amino}cyclohexanol]
lysosomal size [1]: increase lysosomal size
secretion of Abeta40 into the media [3]: decreased secretion
secretion of Abeta42 into the media [3]: decreased secretion
Increase of elimination half-life vs. ambroxol [4]: increased by more than two-fold
In vitro elimination half-life t1/2 [4]: >2 h
Intrinsic clearance CLint-microsomes [4]: <5.775 μL/min/mg protein
lysosomal, autophagosomal and TFEB gene expression (LAMP1, Cathepsin B, GBA1, LC3, TFEB mRNA) [6]: increased transcription of lysosome-associated LAMP1, Cathepsin B, GBA1, and autophagy-associated LC3 and TFEB to a greater extent than ambroxol; also recorded: drive lysosomal and autophagosomal and TFEB gene expression
lysosomal and autophagosomal gene expression (LAMP1, Cathepsin D, Cathepsin B, GBA1, LC3, TFEB mRNA) [7]: increased transcription of lysosome-associated LAMP1, Cathepsin D, Cathepsin B, GBA1, and autophagy-associated LC3 and TFEB to a greater extent than ambroxol; also recorded: drive lysosomal and autophagosomal gene expression to a greater degree in iPSC-derived human neurons compared with ambroxol

Nc1c(Br)cc(Br)cc1CN[C@H]1CC[C@H](O)CC1 [ambroxol, trans-4-((2-amino-3,5-dibromobenzyl)amino) cyclohexanol]
lifespan ([8]; starting at 2 months of age, FIG. 8): able to increase lifespan
healthspan ([8]; surviving animals when sacrificed): healthspan was extended in parallel with lifespan
secretion of beta amyloid species (Abeta 40 and 42) ([3]; FIG. 7A-B): effective in reducing secretion of beta amyloid species
cognitive acuity (novel place recognition) [9]: dose-related improvement in cognitive acuity
